Reference: ChEMBL document CHEMBL1201862, “PubChem BioAssay data set” (2004)
Activity calls are given as the source filed them.

Tests used:
[1] = HEp-2 cell cytotoxicity, dose response, cytotoxicity control for RSV inhibitor project, HTS (AID 2410); type: functional; conditions: human respiratory syncytial virus
H9c2 = assay: cells; type: functional, cell-based; conditions: Rattus norvegicus, H9c2, Myocardium
[2] = biological target: T1, Small ubiquitin-related modifier 1 (Homo sapiens, UniProt P63165); assay: inhibitors of SUMO1 peptide binding, dose response, biochemical, fluorescence polarization, uHTS hits (AID 624382); type: functional; conditions: read-out: IC50_Mean
[3] = biological target: T1, Small ubiquitin-related modifier 1; assay: inhibitors of SUMO1 partner interactions, dose response, biochemical, FRET (AID 624383); type: functional; conditions: read-out: IC50_Mean
Nonstructural protein 1 = Nonstructural protein 1 (Influenza A virus, UniProt Q194T2); type: functional, Influenza A virus (A/California/07/2009(H1N1))
Genome polyprotein = Genome polyprotein (dengue virus type 2, UniProt P29990); assay: Dengue-2 NS5 methyltransferase inhibitors, primary screen, biochemical, confirmation dose response (AID 588689); type: functional
[4] = biological target: Heat shock protein HSP 90-alpha (Homo sapiens, UniProt P07900); type: functional, organism-based
SN12K1 = assay: cells; type: functional; conditions: Homo sapiens
[5] = biological target: Luciferin 4-monooxygenase (Photinus pyralis, UniProt P08659); assay: firefly luciferase enzyme inhibitors, dose response, biochemical, luminescence (AID 1891)
[6] = Luminescence Cell-Based Dose Confirmation HTS to Identify Inhibitors of Platelet Dense Granule Release. [Related pubchem assays: 1663 (Primary HTS), 1678 (Summary of Project)]; type: functional
[7] = inhibitors of HIV Env-driven cell fusion, dose response, cherry-pick (AID 652057); type: functional, cell-based
[8] = inhibitors of clade B AD8 Env fusion, dose response, cell-based, cherry-pick (AID 652062); type: functional;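 further: luciferase signal from cell-cell fusion driven by HIV-1 clade B AD8 Env; potency is for inhibitors of fusion seen as a drop in luminescence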
[9] = ZM109 Env clade C HIV-1 fusion inhibitors, dose response, HeLa effector, CEM target cells, luciferase, cherry-pick (AID 652058); type: functional, cell-based
Aminopeptidase N = biological target: T2, Aminopeptidase N (Plasmodium falciparum FcB1/Columbia, UniProt O96935); assay: P. falciparum M1AAP inhibitors, biochemical, fluorogenic H-Leu-NHMec substrate, 1536-well (AID 1445); set-up: species or system Plasmodium falciparum 3D7, 3D7
T2 sequence (O96935 whole entry): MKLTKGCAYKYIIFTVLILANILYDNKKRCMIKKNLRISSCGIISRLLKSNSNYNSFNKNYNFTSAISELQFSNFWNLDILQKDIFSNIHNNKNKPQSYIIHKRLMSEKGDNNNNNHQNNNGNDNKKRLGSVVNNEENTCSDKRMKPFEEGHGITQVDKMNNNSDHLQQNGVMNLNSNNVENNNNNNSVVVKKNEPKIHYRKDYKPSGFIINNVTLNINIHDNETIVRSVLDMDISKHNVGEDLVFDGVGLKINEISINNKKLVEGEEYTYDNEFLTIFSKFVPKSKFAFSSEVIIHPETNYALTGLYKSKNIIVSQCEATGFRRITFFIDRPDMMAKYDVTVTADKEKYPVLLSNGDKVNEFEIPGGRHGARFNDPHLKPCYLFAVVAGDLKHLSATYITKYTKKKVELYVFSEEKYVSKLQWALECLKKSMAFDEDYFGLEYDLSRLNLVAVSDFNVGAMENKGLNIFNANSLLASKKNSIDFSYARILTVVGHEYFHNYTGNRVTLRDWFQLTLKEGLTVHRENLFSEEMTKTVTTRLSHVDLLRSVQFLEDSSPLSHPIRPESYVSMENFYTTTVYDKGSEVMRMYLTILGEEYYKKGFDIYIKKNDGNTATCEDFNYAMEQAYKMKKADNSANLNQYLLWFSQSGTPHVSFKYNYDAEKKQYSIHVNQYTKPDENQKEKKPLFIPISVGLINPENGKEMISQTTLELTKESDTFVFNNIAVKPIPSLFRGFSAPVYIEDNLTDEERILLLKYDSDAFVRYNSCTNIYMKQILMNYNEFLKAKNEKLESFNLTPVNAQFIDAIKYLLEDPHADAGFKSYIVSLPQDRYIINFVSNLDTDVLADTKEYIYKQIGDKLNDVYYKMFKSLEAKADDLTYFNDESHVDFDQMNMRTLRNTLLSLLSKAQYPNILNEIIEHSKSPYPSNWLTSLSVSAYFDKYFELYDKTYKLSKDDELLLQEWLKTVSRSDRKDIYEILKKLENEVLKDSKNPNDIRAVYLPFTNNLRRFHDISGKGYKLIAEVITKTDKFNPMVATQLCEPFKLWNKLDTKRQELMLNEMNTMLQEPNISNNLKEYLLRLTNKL

[10] = cytotoxicity toward DRD oncogenic fibroblasts, dose response, cell-based, non-viral oncogenic, luminescence (AID 1934); type: functional; conditions: Homo sapiens
BJ [11] = assay: cytotoxicity toward BJ-TERT-LT-ST fibroblasts, dose response, cell-based, RAS-independent, luminescence (AID 1935); type: functional; conditions: Homo sapiens;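 further: BJ fibroblasts immortalized with TERT plus LT and ST oncogenes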
Streptococcus = assay: Group A Streptococcus viability loss, dose response, counter-screen for streptokinase expression inhibitor project, luminescence, BacTiterGlo (AID 1915); type: functional, organism-based;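 further: potency for reduction of bacterial viability or growth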
BJ [12] = assay: cells; type: functional, cell-based; conditions: Homo sapiens
[13] = test system: Streptococcus sp. 'group A'; assay: growth inhibition of control SK(-) GAS strain, dose response, counter-screen for streptokinase expression inhibitor project, luminescence, kanamycin, BacTiterGlo, confirmation (AID 1900); type: functional, organism-based
BJ [14] = assay: cytotoxicity toward BJ-TERT fibroblasts, dose response, cell-based, RAS-independent, luminescence (AID 1933); type: functional; conditions: Homo sapiens

Genome polyprotein, sequence (P29990 2492-3391 limits assumed): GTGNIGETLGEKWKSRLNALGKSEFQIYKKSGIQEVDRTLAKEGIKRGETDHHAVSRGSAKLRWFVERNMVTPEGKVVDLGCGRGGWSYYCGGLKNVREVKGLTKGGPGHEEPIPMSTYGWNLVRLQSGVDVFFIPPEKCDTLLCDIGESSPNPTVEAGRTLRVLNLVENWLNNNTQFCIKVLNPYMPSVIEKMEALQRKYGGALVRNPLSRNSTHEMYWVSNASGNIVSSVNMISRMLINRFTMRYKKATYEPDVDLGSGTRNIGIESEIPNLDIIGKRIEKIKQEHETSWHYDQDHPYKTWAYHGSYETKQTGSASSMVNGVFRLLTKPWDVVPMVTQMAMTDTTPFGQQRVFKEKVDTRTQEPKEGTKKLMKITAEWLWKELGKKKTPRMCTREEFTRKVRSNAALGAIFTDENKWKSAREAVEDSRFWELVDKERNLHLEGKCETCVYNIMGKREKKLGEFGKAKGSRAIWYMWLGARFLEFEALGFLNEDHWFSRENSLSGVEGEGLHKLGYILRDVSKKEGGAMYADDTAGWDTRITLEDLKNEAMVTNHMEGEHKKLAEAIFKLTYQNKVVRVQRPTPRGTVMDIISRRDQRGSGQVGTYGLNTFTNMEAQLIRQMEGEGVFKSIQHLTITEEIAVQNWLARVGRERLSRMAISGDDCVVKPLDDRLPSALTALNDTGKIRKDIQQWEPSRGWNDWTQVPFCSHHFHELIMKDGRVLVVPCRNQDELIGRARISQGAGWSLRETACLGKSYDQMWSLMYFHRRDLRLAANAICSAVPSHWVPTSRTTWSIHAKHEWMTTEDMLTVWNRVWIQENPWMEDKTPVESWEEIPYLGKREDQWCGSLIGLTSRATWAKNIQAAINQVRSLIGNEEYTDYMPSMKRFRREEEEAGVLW
Luciferin 4-monooxygenase, sequence (P08659 whole entry): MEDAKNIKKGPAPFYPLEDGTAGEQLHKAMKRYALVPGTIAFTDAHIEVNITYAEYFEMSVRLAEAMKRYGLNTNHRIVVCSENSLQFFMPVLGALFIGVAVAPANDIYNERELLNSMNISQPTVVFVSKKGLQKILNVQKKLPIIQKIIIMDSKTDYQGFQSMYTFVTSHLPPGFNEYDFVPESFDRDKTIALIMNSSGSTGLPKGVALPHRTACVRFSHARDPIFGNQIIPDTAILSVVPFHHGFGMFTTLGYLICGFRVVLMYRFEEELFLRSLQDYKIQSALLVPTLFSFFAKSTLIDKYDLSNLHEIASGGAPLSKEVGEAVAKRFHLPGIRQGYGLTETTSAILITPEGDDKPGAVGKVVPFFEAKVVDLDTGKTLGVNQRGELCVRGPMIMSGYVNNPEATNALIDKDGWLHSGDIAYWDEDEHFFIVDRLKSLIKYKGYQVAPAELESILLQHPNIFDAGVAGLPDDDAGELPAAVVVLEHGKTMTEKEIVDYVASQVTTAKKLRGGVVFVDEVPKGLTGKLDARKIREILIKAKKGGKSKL
T1 sequence (P63165 whole entry): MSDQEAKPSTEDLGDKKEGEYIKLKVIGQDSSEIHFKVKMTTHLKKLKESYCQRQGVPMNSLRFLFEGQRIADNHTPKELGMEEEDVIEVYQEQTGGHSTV
Nonstructural protein 1, sequence (Q194T2 whole entry): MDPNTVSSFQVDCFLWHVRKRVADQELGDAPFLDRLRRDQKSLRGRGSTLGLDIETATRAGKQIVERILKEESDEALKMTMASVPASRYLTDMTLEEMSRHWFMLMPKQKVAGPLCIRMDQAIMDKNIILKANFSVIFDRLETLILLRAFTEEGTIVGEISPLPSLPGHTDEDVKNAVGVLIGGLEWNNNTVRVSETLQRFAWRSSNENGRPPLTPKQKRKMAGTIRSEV

## CCn1c(NCc2cc(Cl)ccc2O)nc2ccccc21
[1]
  CC50: 44.7 µM (active)

## O=C(COc1cccc2c1CCNC2=O)Nc1cccc(F)c1
H9c2
  IC50: > 79 µM (inactive)

## O=C(O)CP(=O)(c1ccccc1)c1ccccc1
[2]
  IC50: > 66.6 µM (inactive)
[3]
  IC50: 100 µM (inactive)

## CCn1c(=O)c(C(=O)NC(C)c2ccccc2)c(O)c2ccccc21 (centres undefined)
H9c2
  IC50: 13.5 µM (active)

## COc1cccc(C=NNC(=O)c2ccncc2)c1O
Nonstructural protein 1
  IC50: 6.26 µM (active)

## CCCCCCCC1=NN(c2ccc(S(=O)(=O)O)cc2)C(=O)C1N=O (centres undefined)
Genome polyprotein
  IC50: 27.4 µM (active)

## CCN1CCCC1CN(Cc1cc2ccc(C)cc2nc1O)C(S)=Nc1ccc(F)cc1 (centres undefined)
[4]
  AC50: 2.64 µM (active)

## CCOC(=O)C(C)Oc1ccc(C2NC(=O)NC(C)=C2C(C)=O)cc1Br (centres undefined)
H9c2
  IC50: 30.6 µM (inactive)

## O=C(O)c1ccc(N=N/C(=N\Nc2ccc(C(=O)O)cc2)c2ccccc2)cc1
Genome polyprotein
  IC50: 30.4 µM (active)

## O=c1cc(O)ccn1C1C=C(CO)C(O)C1O (centres undefined)
SN12K1
  GI50: > 625 µM (inactive)

## Oc1ccc(/C=N/NC(=S)N/N=C/c2ccc(O)cc2)cc1
[5]
  EC50: 0.316 µM (active)
[6]
  EC50: 0.317 µM (active)

## CC1(C)C2CC[C@]3(C)[C@H](C(=O)C=C4[C@@H]5C[C@@](C)(C(=O)O)CC[C@]5(C)CC[C@]43C)[C@@]2(C)CC[C@@H]1O[C@H]1O[C@H](C(=O)O)[C@@H](O)[C@H](O)[C@H]1O[C@@H]1O[C@H](C(=O)O)[C@@H](O)[C@H](O)[C@H]1O (some centres undefined)
[2]
  IC50: > 66.6 µM (inactive)
[3]
  IC50: 9.45 µM (active)

## COc1ccc(S(=O)(=O)Nc2ccc3c(c2)CC(=O)N([C@H](C)CO)C[C@H](C)[C@H](CN(C)S(=O)(=O)c2ccccc2)O3)cc1
[7]
  AC50: < 0.26 µM (active)
[8]
  AC50: 2.09 µM (active)

## Cc1noc(C)c1S(=O)(=O)N(C)C[C@@H]1Oc2ccc(NC(=O)NC3CCCCC3)cc2CC(=O)N([C@H](C)CO)C[C@@H]1C
[9]
  AC50: 4.3 µM (active)
[7]
  AC50: 5.98 µM (active)
[8]
  AC50: 4.26 µM (active)

## C/C(=N\Nc1nc(C(=O)O)cs1)c1ccccc1
Aminopeptidase N
  IC50: 34.2 µM (active)

## O=C(O)/C(CC(=O)c1ccc(Cl)cc1)=N/Nc1ccc([N+](=O)[O-])cc1[N+](=O)[O-]
Genome polyprotein
  IC50: 12.5 µM (active)

## C=CC(=O)Nc1cccc(Oc2ccnc(Nc3ccc(N4CCN(C)CC4)cc3)n2)c1
Nonstructural protein 1
  IC50: 23.1 µM (active)

## Cc1ccc(/C=N/NC(=O)C(O)c2ccccc2)o1 (centres undefined)
[5]
  EC50: > 112 µM (not active)
[6]
  EC50: > 112 µM (not active)

## Cc1ccc(NC(C)C(=O)N/N=C/c2c[nH]c3ccccc23)cc1 (centres undefined)
[5]
  EC50: > 112 µM (not active)
[6]
  EC50: > 112 µM (not active)

## Oc1cccc2ccc(/C=C/c3ccccc3Br)nc12
[10]
  EC50: 17.4 µM (active)
[4]
  AC50: 12.9 µM (active)
BJ [11]
  EC50: 108 µM (active)
Streptococcus
  EC50: 3.96 µM (active)
BJ [12]
  EC50: 18.1 µM (active)
[13]
  EC50: 0.212 µM (active)
BJ [14]
  EC50: 20 µM (active)
